Experimental data taken from US11090304B2 (Amgen Inc., priority 2018, dated 2021).

How the values were obtained:
[1] = molecular target: GDP-bound KRAS protein (aa 1-169), containing both G12C and C118A amino acid substitutions (Homo sapiens, UniProt P01116, C118A/G12C); assay: Coupled nucleotide exchange assay (SOS-mediated, AlphaScreen); type: biochemical; details: 5 min compound pre-incubation
[2] = system: Phosphorylation of ERK1/2 in MIA PaCa-2 cells; assay: Phospho-ERK1/2 MSD assay in MIA PaCa-2 cells; type: cell-based; details: Homo sapiens, MIA PaCa-2, 2 h, read-out: p-ERK IC50 (2 h; MIA PaCa-2), 2 h compound treatment
Method in brief: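 MIA PaCa-2 or A549 cells were treated with a compound dose-response titration for 2 or 4 h at 37 °C, then stimulated with 10 ng/mL EGF for 10 min. Phospho-ERK1/2 in RIPA lysates was measured by MSD whole-cell lysate immunoassay, and IC50 came from a 4-parameter logistic fit.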

Chain of GDP-bound KRAS protein (aa 1-169), containing both G12C and C118A amino acid substitutions (P01116 1-169 isoform P01116-2 G12C/C118A): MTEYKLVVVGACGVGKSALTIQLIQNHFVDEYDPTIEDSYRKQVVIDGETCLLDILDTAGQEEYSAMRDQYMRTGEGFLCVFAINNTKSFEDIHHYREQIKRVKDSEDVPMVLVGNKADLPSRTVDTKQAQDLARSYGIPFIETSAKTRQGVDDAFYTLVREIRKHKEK

Structure (SMILES)	Coupled exchange IC50 (5 min) [1]	IC50 [2] [nM]
C=CC(=O)N1CCN(c2nc(=O)n(-c3ncsc3C(C)C)c3nc(-c4ccccc4F)c(Cl)cc23)[C@@H](C)C1 [Example 55-19, 6-chloro-7-(2-fluorophenyl)-4-((2S)-2-methyl-4-(2-propenoyl)-1-piperazinyl)-1-(5-(2-propanyl)-1,3-thiazol-4-yl)pyrido[2,3-d]pyrimidin-2(1H)-one]	0.22 | nda μM	191
C=CC(=O)N1CCN(c2nc(=O)n(-c3cn(Cc4ccccc4)nc3C3CC3)c3nc(-c4c(O)cccc4F)c(Cl)cc23)[C@@H](C)C1 [Example 55-20, 1-(1-benzyl-3-cyclopropyl-1H-pyrazol-4-yl)-6-chloro-7-(2-fluoro-6-hydroxyphenyl)-4-((2S)-2-methyl-4-(2-propenoyl)-1-piperazinyl)pyrido[2,3-d]pyrimidin-2(1H)-one]	0.695 | nda μM	2670
C=CC(=O)N1CCN(c2nc(=O)n(-c3c[nH]nc3C3CC3)c3nc(-c4c(O)cccc4F)c(Cl)cc23)[C@@H](C)C1 [Example 55-21, 6-chloro-1-(3-cyclopropyl-1H-pyrazol-4-yl)-7-(2-fluoro-6-hydroxyphenyl)-4-((2S)-2-methyl-4-(2-propenoyl)-1-piperazinyl)pyrido[2,3-d]pyrimidin-2(1H)-one]	0.444 | nda μM	≥ 10000
C=CC(=O)N1CCN(c2nc(=O)n(-c3c(CC)cncc3CC)c3nc(-c4ccccc4F)c(Cl)cc23)[C@@H](C)C1 [Example 55-22, 6-chloro-1-(3,5-diethyl-4-pyridinyl)-7-(2-fluorophenyl)-4-((2S)-2-methyl-4-(2-propenoyl)-1-piperazinyl)pyrido[2,3-d]pyrimidin-2(1H)-one]	0.653 | nda μM	303
C=CC(=O)N1CCN(c2nc(=O)n(-c3nccnc3C(C)(C)C)c3nc(-c4c(O)cccc4F)c(Cl)cc23)[C@@H](C)C1 [Example 55-23]	0.208 | nda μM	260
C=CC(=O)N1CCN(c2nc(=O)n(-c3ncccc3C(=C)C)c3nc(-c4c(O)cccc4F)c(Cl)cc23)[C@@H](C)C1 [Example 55-24, 6-chloro-7-(2-fluoro-6-hydroxyphenyl)-4-((2S)-2-methyl-4-(2-propenoyl)-1-piperazinyl)-1-(3-(1-propen-2-yl)-2-pyridinyl)pyrido[2,3-d]pyrimidin-2(1H)-one]	0.113 | nda μM	74
C=CC(=O)N1CCN(c2nc(=O)n(-c3c(O)cccc3C(C)C)c3nc(-c4ccccc4F)c(Cl)cc23)[C@@H](C)C1 [Example 55-26, 6-chloro-7-(2-fluorophenyl)-1-(2-hydroxy-6-(2-propanyl)phenyl)-4-((2S)-2-methyl-4-(2-propenoyl)-1-piperazinyl)pyrido[2,3-d]pyrimidin-2(1H)-one]	0.091 | nda μM	215
C=CC(=O)N1CCN(c2nc(=O)n(-c3c(CC)ncnc3CC)c3nc(-c4c(O)cccc4F)c(Cl)cc23)[C@@H](C)C1 [Example 55-31, 6-chloro-1-(4,6-diethyl-5-pyrimidinyl)-7-(2-fluoro-6-hydroxyphenyl)-4-((2S)-2-methyl-4-(2-propenoyl)-1-piperazinyl)pyrido[2,3-d]pyrimidin-2(1H)-one]	0.098 | nda μM	79
C=CC(=O)N1CCN(c2nc(=O)n(-c3c(CC)ncnc3CC)c3nc(-c4ccc(F)cc4F)c(Cl)cc23)[C@@H](C)C1 [Example 55-35, 6-chloro-1-(4,6-diethyl-5-pyrimidinyl)-7-(2,4-difluorophenyl)-4-((2S)-2-methyl-4-(2-propenoyl)-1-piperazinyl)pyrido[2,3-d]pyrimidin-2(1H)-one]	0.225 | nda μM	252
C=CC(=O)N1CCN(c2nc(=O)n(-c3c(C(C)C)nc(OC)nc3C(C)C)c3nc(-c4ccccc4F)c(Cl)cc23)[C@@H](C)C1 [Example 55-37, 6-chloro-7-(2-fluorophenyl)-1-(2-methoxy-4,6-di(2-propanyl)-5-pyrimidinyl)-4-((2S)-2-methyl-4-(2-propenoyl)-1-piperazinyl)pyrido[2,3-d]pyrimidin-2(1H)-one]	0.03 | nda μM	57
C=CC(=O)N1CCN(c2nc(=O)n(-c3c(C)ncnc3C(C)C)c3nc(-c4cc(F)ccc4F)c(Cl)cc23)[C@@H](C)C1 [Example 55-39, 6-chloro-7-(2,5-difluorophenyl)-1-(4-methyl-6-(2-propanyl)-5-pyrimidinyl)-4-((2S)-2-methyl-4-(2-propenoyl)-1-piperazinyl)pyrido[2,3-d]pyrimidin-2(1H)-one]	0.292 | nda μM	271
C=CC(=O)N1CCN(c2nc(=O)n(-c3c(C)ncnc3C(C)C)c3nc(-c4cc(C)ccc4F)c(Cl)cc23)[C@@H](C)C1 [Example 55-40, 6-chloro-7-(2-fluoro-5-methylphenyl)-1-(4-methyl-6-(2-propanyl)-5-pyrimidinyl)-4-((2S)-2-methyl-4-(2-propenoyl)-1-piperazinyl)pyrido[2,3-d]pyrimidin-2(1H)-one]	0.1 | nda μM	149
C=CC(=O)N1CCN(c2nc(=O)n(-c3ncnn3C(C)C)c3nc(-c4ccccc4F)c(Cl)cc23)[C@@H](C)C1 [Example 55-41, 6-chloro-7-(2-fluorophenyl)-4-((2S)-2-methyl-4-(2-propenoyl)-1-piperazinyl)-1-(1-(2-propanyl)-1H-1,2,4-triazol-5-yl)pyrido[2,3-d]pyrimidin-2(1H)-one]	0.292 | nda μM	908
C=CC(=O)N1CCN(c2nc(=O)n(-c3c(CO)cccc3C(C)C)c3nc(-c4ccccc4F)c(Cl)cc23)[C@@H](C)C1 [Example 55-43, 6-chloro-7-(2-fluorophenyl)-1-(2-(hydroxymethyl)-6-(2-propanyl)phenyl)-4-((2S)-2-methyl-4-(2-propenoyl)-1-piperazinyl)pyrido[2,3-d]pyrimidin-2(1H)-one]	0.073 | nda μM	70
C=CC(=O)N1CCN(c2nc(=O)n(-c3ccccc3S(F)(F)(F)(F)F)c3nc(-c4c(O)cccc4F)c(Cl)cc23)[C@@H](C)C1 [Example 56-1, 6-Chloro-7-(2-fluoro-6-hydroxy-phenyl)-4-[(2S)-2-methyl-4-prop-2-enoyl-piperazin-1-yl]-1-[2-(pentafluoro-λ^6-sulfanyl)phenyl]pyrido[2,3-d]pyrimidin-2-one]	0.149 | nda μM	359
C=CC(=O)N1CCN(c2nc(=O)n(-c3c(C(C)C)ncnc3C(C)C)c3nc(-c4c(N)cccc4F)c(Cl)cc23)[C@@H](C)C1 [Example 56-2, 7-(2-amino-6-fluorophenyl)-6-chloro-1-(4,6-di(2-propanyl)-5-pyrimidinyl)-4-((2S)-2-methyl-4-(2-propenoyl)-1-piperazinyl)pyrido[2,3-d]pyrimidin-2(1H)-one]	0.061 | nda μM	52
C=CC(=O)N1CCN(c2nc(=O)n(-c3c(C)cccc3C3CC3)c3nc(-c4ccccc4F)c(Cl)cc23)[C@@H](C)C1 [Example 56-5, 6-chloro-1-(2-cyclopropyl-6-methylphenyl)-7-(2-fluorophenyl)-4-((2S)-2-methyl-4-(2-propenoyl)-1-piperazinyl)pyrido[2,3-d]pyrimidin-2(1H)-one]	0.433 | nda μM	740
C=CC(=O)N1CCN(c2nc(=O)n(-c3ccccc3C(C)C)c3nc(-c4cc(N)ccc4Br)c(Cl)cc23)[C@@H](C)C1 [Example 56-6, 7-(5-amino-2-bromophenyl)-6-chloro-4-((2S)-2-methyl-4-(2-propenoyl)-1-piperazinyl)-1-(2-(2-propanyl)phenyl)pyrido[2,3-d]pyrimidin-2(1H)-one]	0.125 | nda μM	84
C=CC(=O)N1CCN(c2nc(=O)n(-c3ccccc3C(C)C)c3nc(-c4cc(N)ccc4Cl)c(Cl)cc23)[C@@H](C)C1 [Example 56-7, 7-(5-amino-2-chlorophenyl)-6-chloro-4-((2S)-2-methyl-4-(2-propenoyl)-1-piperazinyl)-1-(2-(2-propanyl)phenyl)pyrido[2,3-d]pyrimidin-2(1H)-one]	0.11 | nda μM	69
C=CC(=O)N1CCN(c2nc(=O)n(-c3ccccc3C(C)C)c3nc(-c4cc(OC)ccc4F)c(Cl)cc23)[C@@H](C)C1 [Example 56-9, 6-chloro-7-(2-fluoro-5-methoxyphenyl)-4-((2S)-2-methyl-4-(2-propenoyl)-1-piperazinyl)-1-(2-(2-propanyl)phenyl)pyrido[2,3-d]pyrimidin-2(1H)-one]	0.269 | nda μM	160
C=CC(=O)N1CCN(c2nc(=O)n(-c3ccccc3C(C)C)c3nc(-c4ccccc4OC(F)F)c(Cl)cc23)[C@@H](C)C1 [Example 56-10, 6-chloro-7-(2-(difluoromethoxy)phenyl)-4-((2S)-2-methyl-4-(2-propenoyl)-1-piperazinyl)-1-(2-(2-propanyl)phenyl)pyrido[2,3-d]pyrimidin-2(1H)-one]	0.332 | nda μM	260
C=CC(=O)N1CCN(c2nc(=O)n(-c3c(C)ccnc3CC)c3nc(-c4c(O)cccc4F)c(F)cc23)[C@@H](C)C1 [Example 57-1, 1-(2-Ethyl-4-methyl-3-pyridinyl)-6-fluoro-7-(2-fluoro-6-hydroxyphenyl)-4-((2S)-2-methyl-4-(2-propenoyl)-1-piperazinyl)pyrido[2,3-d]pyrimidin-2(1H)-one]	0.835 | nda μM	171
